From patent publication US5945400A, “Nucleic acid-containing composition, preparation and use thereof” (Rhone-Poulenc Rorer SA, priority 1995, dated 1999)
In brackets after ≈: the same amount, converted by molar mass. One block for each compound: values may come before it. No end group written: not given here.

What was measured:
NIH3T3 cells [1] = test: Variation of compound/DNA ratio in the presence of lipopolyamine A, luciferase activity; assay type: cell-based; conditions: Compound/DNA ratio 0
Description: (§1) 1. A mixture of 10 μl composed of the following is prepared:
0.55 μg of pCNV-luc plasma DNA and a compound according to the invention, in the ratio indicated, in 150 mM NaCl buffer solution,
1,3-bis (3-aminopropylamino) -2-propyl (dioctadecyl-carbamoylmethoxy)acetate in the charge ratios indicated.
(§2) 2. 5·10^4 cells from NIH3T3 lines are incubated with the above mixture at 37° C., under an atmosphere of 5% CO2 for 4 hours. The cells are then washed and recultured for 48 hours in a medium containing 10% serum (DMEM 10% SVF). The cell carpet is then lysed, 45 hours after the transfection, in 100 μl of lysis buffer (Promega), recovered and then centrifuged at 20,000 g for 5 minutes. The luciferase activity is measured on 10 μl of the supernatant, adding 50 μl of substrate (Promega). The reading is taken on a Berthold lumat 9501® luminometer, cumulating the RLUs (relative light units) over 10 seconds.

[2] = test system: tumours of type 3LL (Lewis Lung carcinoma); test: In vivo transfer into tumour cells (3LL tumours), luciferase activity; design: species or system mice; conditions: no peptide
Description: The corresponding tests are carried out on adult (>8 weeks) female C57/BL mice carrying tumours of type 3LL (Lewis Lung carcinoma) obtained by passing fragments of tumour from animal to animal, implanted under the skin of the flank.
As regards the solutions injected, they are prepared as follows: the DNA is first dissolved in the buffer, the peptide is then optionally added and, after 20 minutes, a solution of cationic lipids at high concentration (20 or 40 mM) is added to the mixture. After addition of all these products, the mixture contains, besides the DNA, the peptide and the cationic lipid, 150 mM NaCl, 5% D-glucose and 5 mM MES pH 6.2. In the case of the last two series with lipopolyamine C (RPR 120 535), the injection vehicle is 75 mM NaCl and 150 mM NaCl, 5% D-glucose respectively. The injection is made 20 to 30 minutes after the solution has been prepared.
Each transfecting composition (see Tables 9 and 10 for their respective specificities) is injected into the tumour 7 days after implantation, the mouse being anaesthetized with a ketamine 130 mg/kg+xylazine (4 mg/kg) mixture.
Two days after the injection, the tumour tissue is removed, weighed and then chopped up and ground in 500 μl of lysis buffer (Promega cell lysis buffer E153 A). After centrifugation (20,000 g for 10 minutes), 10 μl are taken and used to evaluate the luciferase activity by measuring the total light emission obtained after mixing with 50 μl of reagent (Promega luciferase assay substrate) in a Lumat LB 9501 luminometer (Berthold), with integration over 10 seconds.
The resulting activity is expressed as RLUs (relative light units) estimated in the entire tumour lysis supernatant, or as RLU per μg of DNA injected.

NIH 3T3 cells = test: in vitro transfer of nucleic acid into NIH 3T3 cells with DOGS (luciferase activity); assay type: cell-based; conditions: 0.25 μg compound
Description: as §1
0.5 μg of pCMV-luc plasma DNA, 0.25 μg of a compound according to the invention, in a buffer solution as identified,
40 mM dioctadecylamidoglycylspermine (DOGS) in charge ratios X as indicated in each of the tests. 2. 5·10^4 cells from the NIH3T3 lines are incubated with the above mixture at 37° C., under an atmosphere of 5% CO2 for 4 hours. The cells are then washed and recultured for 48 hours in a medium containing 10% serum (DMEM 10% SVF).
The cell carpet is then lysed in 50 μl of lysis buffer (Promega), recovered and then centrifuged at 20,000 g for 5 minutes.
The luciferase activity is measured on 4 μl of supernatant by adding 20 μl of substrate (Promega). The reading is taken on a LKB luminometer, cumulating the RLUs (relative light units) over 20 seconds.
3. Compaction in 150 mM NaCl, 10 mM HEPES* (* N-(2-hydroxyethyl)piperazine-N'-(2-ethanesulphonic acid) at pH 7.1
4. Compaction in 5% D-glucose, 150 mM NaCl, with 10 mM HEPES (pH of the compaction solution: 7.2)

NIH3T3 cells [3] = test: Variation of compound/DNA ratio in the presence of DOGS, luciferase activity; assay type: cell-based; conditions: PEP/DNA w/v 0 (no peptide); DOGS charge ratio 1.8x; 0.75 μg DNA
Description: as §1
0.75 μg of pCMV-luc plasma DNA and a compound according to the invention in the ratio indicated, in 5% D-glucose, 150 mM NaCl buffer solution, with 10 mM HEPES (pH of the compaction solution: 7.2),
40 mM dioctadecylamidoglycylspermine (DOGS) in a charge ratio of 1.8×.
as §2, with “2. 4·10^5” for “2. 5·10^4”, “on 5” for “on 10”, “adding 25” for “adding 50”, “on an LKB” for “on a Berthold lumat 9501®”, “over 20” for “over 10”

physchem = assay type: physicochemical
Description: This oligopeptide was synthesized in the form of the trifluoroacetic acid salt using an Applied Biosystem 431A peptide synthesizer, on an HMP resin (Applied Biosystem) and according to an FMOC strategy. After the synthesis, the peptide was released from the resin by treatment for 90 minutes in the presence of 1/19 water/TFA solution. After filtration, the solution is concentrated on a rotary evaporator and the peptide is then precipitated twice, by addition of tert-butyl methyl ether, from a solution in TFA. The final pellet is washed with tert-butyl methyl ether and then dried. The peptide is dissolved in 5 ml of water, filtered and purified by reverse-phase HPLC on a C18 100 A column (Biorad RSL). The peptide is purified by with the aid of a gradient of 0 to 25% of acetonitrile, 0.07% TFA in water 0.07% TFA. The purity of the peptide obtained is greater than 95% and its solubility in water is 100 mg/ml.
This oligopeptide was synthesized in the form of the trifluoroacetic acid salt according to the procedure described above, using 2/40/3/1/2 (v/v) water/TFA/phenol/ethanedithiol/thioanisole solution for the cleavage. The purity of the peptide obtained is greater than 95% and its solubility in water is 100 mg/ml at pH 2.1.
These oligopeptides are synthesized in the form of the trifluoroacetic acid salts according to the procedure described above. To do this, the resin is divided into two batches. A first batch intended for the synthesis of H is treated for the cleavage with 40/3/1/2/2 (v/v) TFA/phenol/ethanedithiol/thioanisole/water solution. The purity of the peptide obtained is greater than 90% and its solubility in water is 10 mg/ml at pH 2.1. The synthesis is continued on the second batch of resin so as to obtain nls-βAla-H. The cleavage solution used is identical to the previous one. The purity of the peptide obtained is greater than 95% and its solubility in water is 10 mg/ml at pH 2.1.

3LL cells = test: In vitro transfer of nucleic acid into 3LL cells, luciferase activity; assay type: cell-based; conditions: 0.5 μg DNA, 0.5 μg peptide, 75 mM NaCl
Description: A mixture of 10 μl composed of the following is prepared: 0.5 μg of pCMV-luc plasmid DNA, 0.5 μg of PR1 or PR2 a compound according to the invention, in a solution of 75 mM NaCl final lipopolyamine C (RPR 120535) in charge ratios as indicated in each of the tests listed in Table 11 below. 1×10^5 3LL cells (in 250 μl of DMEM culture medium with 10% foetal calf serum) are incubated with the above mixture at 37° C. under a 5% CO2 atmosphere for 4 hours. 500 μl of culture medium are added and the cells are recultured. The following day, the cells are washed and recultured for 24 hours in the same medium containing 10% foetal calf serum. The cell carpet is then lysed in 100 μl of lysis buffer (Promega). The luciferase activity is measured by adding 50 μl of substrate (Promega). The reading is taken on an LB luminometer by cumulating the RLUs (relative light nits) over 10 seconds.

Compound: CCCCCCCCCCCCCCCCCCN(CCCCCCCCCCCCCCCCCC)C(=O)COCC(=O)OC(CNCCCN)CNCCCN [lipopolyamine A, d,1-3-bis(3-aminopropylamino)-2-propyl (dioctadecyl-carbamoylmethoxy)acetate]
luciferase activity (NIH3T3 cells [1]; lipopolyamine A 3x): 8.9 10^6 RLU
luciferase activity (NIH3T3 cells [1]; lipopolyamine A 6x): 6.2 10^6 RLU
luciferase activity (NIH3T3 cells [1]; lipopolyamine A NH2/DNA phosphates 1.8x): 3.9 10^6 RLU
Result, RLU/tumour average ([2]; 7.5 μg DNA/tumour, 0.5 μg/μl, cationic lipid A 3 nmol/μg DNA): 88 712 RLU/tumour
Result, RLU/tumour average ([2]; 20 μg DNA/tumour, 2 μg/μl, cationic lipid A 1.8 nmol/μg DNA): 142 300 RLU/tumour
Result, RLU/tumour average ([2]; 30 μg DNA/tumour, 2 μg/μl, cationic lipid A 3 nmol/μg DNA): 99 775 RLU/tumour

Compound: CCCCCCCCCCCCCCCCCCN(CCCCCCCCCCCCCCCCCC)C(=O)CNC(=O)C(CCCNCCCN)NCCCN (stereo not shown) [DOGS, dioctadecylamidoglycylspermine]
luciferase activity (NIH 3T3 cells; Table 1, DOGS/DNA charge ratio 0.8x, compaction in 150 mM NaCl, 10 mM HEPES pH 7.1, 0.5 μg pCMV-luc): 32 R.L.U
luciferase activity (NIH 3T3 cells; Table 1, DOGS/DNA charge ratio 1.8x, 150 mM NaCl, 10 mM HEPES pH 7.1, 0.5 μg pCMV-luc): 220 R.L.U
luciferase activity (NIH 3T3 cells; Table 1, DOGS/DNA charge ratio 3x, 150 mM NaCl, 10 mM HEPES pH 7.1, 0.5 μg pCMV-luc): 5400 R.L.U
luciferase activity (NIH 3T3 cells; Table 2, DOGS/DNA charge ratio 0.8x, 5% D-glucose, 150 mM NaCl, 10 mM HEPES pH 7.2, 0.5 μg DNA): 880 R.L.U
luciferase activity (NIH 3T3 cells; Table 2, DOGS/DNA charge ratio 1.8x, 5% D-glucose, 150 mM NaCl, 10 mM HEPES pH 7.2, 0.5 μg DNA): 6600 R.L.U
luciferase activity (NIH 3T3 cells; Table 2, DOGS/DNA charge ratio 3x, 5% D-glucose, 150 mM NaCl, 10 mM HEPES pH 7.2, 0.5 μg DNA): 22000 R.L.U
luciferase activity (NIH3T3 cells [3]): 2150 RLU

Compound: CCCCCCCCCCCCCCCCCCN(CCCCCCCCCCCCCCCCCC)C(=O)CNC(=O)CNCCCNCCCCNCCCN [Lipopolyamine C, H2 N(CH2)3 NH(CH2)4 NH(CH2)3 NHCH2 COGlyN[(CH2)18]2]
luciferase activity (3LL cells; Table 11, Lipopolyamine C/DNA charge ratio 4x): 107 289 RLU
luciferase activity (3LL cells; Table 11, Lipopolyamine C/DNA charge ratio 6x): 77 396 RLU
luciferase activity (3LL cells; Table 11, Lipopolyamine C/DNA charge ratio 8x): 14 512 RLU
luciferase activity (3LL cells; Table 12, Lipopolyamine C/DNA charge ratio 4x): 12 037 RLU
luciferase activity (3LL cells; Table 12, Lipopolyamine C/DNA charge ratio 6x): 901 RLU
luciferase activity (3LL cells; Table 12, Lipopolyamine C/DNA charge ratio 8x): 328 RLU
Result, RLU/tumour average ([2]; 18.75 μg DNA/tumour, 0.25 μg/μl, cationic lipid C 2 nmol/μg DNA, vehicle 75 mM NaCl): 222 700 RLU/tumour
Result, RLU/tumour average ([2]; 20 μg DNA/tumour, 0.5 μg/μl, cationic lipid C 4 nmol/μg DNA, vehicle 150 mM NaCl, 5% D-glucose): 806 467 RLU/tumour

The next lines start with the values.

solubility (physchem; pH 2.1, water): 10 mg/mL (≈ 3.37 mM)
Compound: CC(C)[C@H](NC(=O)[C@H](CCCCN)NC(=O)[C@H](CCCNC(=N)N)NC(=O)[C@H](CCCCN)NC(=O)[C@H](CCCCN)NC(=O)[C@H](CCCCN)NC(=O)[C@@H]1CCCN1)C(=O)NCCC(=O)N[C@@H](CCCCN)C(=O)N[C@H](C(=O)N1CCC[C@H]1C(=O)N[C@@H](CCCCN)C(=O)N[C@@H](CCCCN)C(=O)N[C@@H](C)C(=O)N[C@@H](CCCCN)C(=O)N[C@@H](CCCCN)C(=O)N1CCC[C@H]1C(=O)N[C@@H](CCCCN)C(=O)N[C@H](C(=O)N1CCC[C@H]1C(=O)N[C@@H](CCCCN)C(=O)N[C@@H](CCCCN)C(=O)N[C@@H](C)C(=O)N[C@@H](CCCCN)C(=O)N[C@@H](CCCCN)C(=O)N1CCC[C@H]1C(=O)O)[C@@H](C)O)[C@@H](C)O [nls-H, ProLysLysLysArgLysVal-βAlaLysThrProLysLysAlaLysLysProLysThrProLysLysAlaLysLysPro (COOH) (SEQ ID No.9)]

solubility (physchem; water): 100 mg/mL
Compound: ATPAKKAAATPAKKAA [N, AlaThrProAlaLysLysAlaAlaAlaThrProAlaLysLysAlaAla (COOH) (SEQ ID No.:3)]

solubility (physchem; pH 2.1, water): 10 mg/mL
Compound: KTPKKAKKPKTPKKAKKP [H, LysThrProLysLysAlaLysLysProLysThrProLysLysAlaLysLysPro (COOH) (SEQ ID No.:4)]

solubility (physchem; pH 2.1, water): 100 mg/mL (≈ 113 mM)
Compound: CC(C)[C@H](NC(=O)[C@H](CCCCN)NC(=O)[C@H](CCCNC(=N)N)NC(=O)[C@H](CCCCN)NC(=O)[C@H](CCCCN)NC(=O)[C@H](CCCCN)NC(=O)[C@@H]1CCCN1)C(=O)O [nls, ProLysLysLysArgLysVal]
